Tests used:
[1] = test system: carrageenan-induced conjunctival edema; assay: Effect on Rat Carrageenan-Induced Conjunctival Edema; format: in vivo, rat (male Wistar); conditions: for Edema weight / % Inhibition (edema weight): 3 hours, n = 10; for Edema weight: mean ± S.E.; for effect on rat carrageenan-induced conjunctival edema, in words: DCE-GS 3, 10, 30 mg/kg i.v., ester derivatives and GSH 30 mg/kg
Procedure: Effect on Rat Carrageenan-Induced Conjunctival Edema Male Wistar rats weighing about 130 g were used in the experiment. S-(α,β-Dicarboxyethyl)glutathione (hereinafter referred to as DCE-GS) dissolved in physiological saline and adjusted with sodium hydrochloride to pH 7 was administered in doses of 3, 10 and 30 mg/kg to rats through the caudal vein (control group: physiological saline). […] One minute later, 50 μl of 1% carrageenan solution was injected beneath the palpebral conjunctiva of the rat under pentobarbital anesthesia. After three hours, each rat was sacrificed and conjunctival edema was isolated and weighted.

hygroscopicity = format: physicochemical
[2] = test system: rat peritoneal mast cells; assay: Inhibitory Effect on the Release of Histamine from Rat Peritoneal Exudate Cells (Compound 48/80-induced); format: cell-based, rat (male SD); conditions: for % Release (histamine): mean ± S.E., boiled control specimen = 100%, control 75.0 ± 6.7
Procedure: Inhibitory Effect on the Release of Histamine from Rat Peritoneal Exudate Cells
(1) Preparation of rat peritoneal cell suspension
Male SD rats weighing 250 to 280 g were used. The rat peritoneal cells were collected and isolated according to the method of Sullivan et al. First, the rat was bled to death by decapitation and immediately the hair of the abdomen was shaved, the skin was incised a few centimeters, and 10 ml of mast cell medium (MCM) was injected into the peritoneal cavity using a 18-G needle while picking up the muscle with tweezers, followed by 90-sec gentle massage. Then, the abdomen was opened to collect as much ascites as possible using a Terumo syringe. The ascites contaminated with blood was not used in the experiment. The ascites was layered in a polycarbonate tube containing 2 ml of 40% Ficoll 400 (Pharmacia) dissolved in MCM, allowed to stand at room temperature for 30 minutes, and centrifuged at 700 rpm at 4° C. for 10 minutes. Then, the sediment in the upper layer of Ficoll 400 was pipetted and washed three times with about 7 ml of MCM. The cells were counted with a Burker-Turk cytometer and using MCM as a diluent, a cell suspension of about 10^5 cells/ml (rat peritoneal cell suspension) was prepared. Mast cells were identified by staining intracellular granules with 0.05% toluidine blue.
(2) Release of histamine from mast cells
After 0.8 ml of rat peritoneal cell suspension was preincubated at 37° C. for 10 minutes, 0.1 ml of the test drug was added. The system was incubated for 5 minutes, at the end of which time 0.1 ml of 10 μg/ml of Compound 48/80 (Sigma) in physiological saline was added. After 10 minutes' incubation, the reaction mixture was cooled in ice-water for 10 minutes to terminate the reaction and centrifuged at 700 rpm at 4° C. for 5 minutes. Then, histamine in the supernatant was determined by HPLC in accordance with the method of Shore et al. as partially modified.

[3] = test system: passive anaphylaxis of the back of the rat; assay: Effect on Passive Anaphylaxis of the Back of the Rat; format: in vivo, rat (male Wistar); conditions: for Area, Inhibition (%) / Dye, Inhibition (%) / Area (of stain) / Dye: 30 minutes; for Area (of stain) / Dye: mean ± S.E., n = 4 or 5; for Area (of stain): saline 926 ± 65; for Dye: saline 767 ± 87
Procedure: Effect on Passive Anaphylaxis of the Back of the Rat
Male Wistar rats weighing about 130 g were used in the experiment. The back hair of each rat was clipped with clippers. The rat antiserum was injected intradermally at the back of the rat. After three days, DCE-GS was administered in doses of 3, 10 and 30 mg/kg (physiological saline to controls) into the caudal vein and after one minute 1 ml of a 50:50 (v/v) mixture of the antigen 1% ovalbumin and 2% Evans blue was administered intravenously to induce passive anaphylaxis. After 30 minutes, the rat was sacrificed and the stained area was determined. The pertinent area was removed and the dye was extracted with 20 ml of formaldehyde for determination.

male ddY mice = assay: Intravenous Acute Toxicity Study; format: in vivo, mouse (male ddY); conditions: i.v.; 100, 200, 400, 800 and 1,600 mg/kg; seventy-two-hour observation; groups of 5
Procedure: Intravenous Acute Toxicity Study
The intravenous acute toxicity study of DCE-GS was conducted in male ddY mice, weighing about 20 g, in groups of 5. The doses were 100, 200, 400, 800 and 1,600 mg/kg (common ratio 2). All the injections were adjusted with 1N sodium hydrochloride to pH 7.

[4] = previously discovered by the inventors (Japanese Kokai 63-8337/1988; Japanese Application 1-79956/1989); cited from earlier work
platelet = conditions: previously discovered by the inventors (Japanese Kokai 63-8337/1988; Japanese Application 1-79956/1989); cited from earlier work
[5] = Table 2, 30 mg/kg, *p < 0.01, **p < 0.001 vs saline (73.7 ± 2.9)

With `CCCCOC(=O)CC(SC[C@H](NC(=O)CC[C@H](N)C(=O)O)C(=O)NCC(=O)O)C(=O)OCCCC` (stereo partly drawn) [DCE-GS di-n-butyl ester sodium, S-(di-n-butyl-α,β-dicarboxyethyl)glutathione sodium] the Edema weight [1, 5] was 60.9 ± 2.8 mg, the “% Inhibition (edema weight)” value ([1]; Table 2, 30 mg/kg) was 17.4% and the hygroscopicity (hygroscopicity) was “hygroscopic”.

With `CCOC(=O)CC(SC[C@H](NC(=O)CC[C@H](N)C(=O)O)C(=O)NCC(=O)O)C(=O)OCC` (stereo partly drawn) [DCE-GS diethyl ester sodium, S-(diethyl-α,β-dicarboxyethyl)glutathione sodium] the Edema weight [1, 5] was 49.7 ± 2.6 mg and the “% Inhibition (edema weight)” value ([1]; Table 2, 30 mg/kg) was 32.6%.

In the case of `N[C@@H](CCC(=O)N[C@@H](CSC(CC(=O)O)C(=O)O)C(=O)NCC(=O)O)C(=O)O` (stereo partly drawn) [DCE-GS, S-(α,β-Dicarboxyethyl)glutathione], the “effect on rat carrageenan-induced conjunctival edema, in words” value [1] is reported as “inhibited rat carrageenan-induced conjunctival edema dose-dependently”, the “Edema weight” value ([1]; Table 1, 3 mg/kg i.v. (caudal vein), *p < 0.001 vs saline (71.7 ± 3.6)) is reported as 50.5 ± 1.9 mg and the “% Inhibition (edema weight)” value ([1]; Table 1, 3 mg/kg i.v.) is reported as 29.6%. For the same compound, the “Edema weight” value ([1]; Table 1, 10 mg/kg i.v., *p < 0.001 vs saline (71.7 ± 3.6)) was 44.9 ± 2.4 mg, the “% Inhibition (edema weight)” value ([1]; Table 1, 10 mg/kg i.v.) was 37.4% and the “Edema weight” value ([1]; Table 1, 30 mg/kg i.v., *p < 0.001 vs saline (71.7 ± 3.6)) was 44.9 ± 2.2 mg. For the same compound, the “% Inhibition (edema weight)” value ([1]; Table 1, 30 mg/kg i.v.) was 37.4%, the “% Release (histamine)” value ([2]; 10^-3 M, n = 3) was 2.9 ± 3.4% and the “% Release (histamine)” value ([2]; 10^-4 M, n = 3) was 59.4 ± 6.2%. The “% Release (histamine)” value ([2]; 10^-5 M, n = 3) was 73.4 ± 6.5%, the “inhibition of histamine release, in words” value ([2]; 10^-5 to 10^-3 M) was “inhibited histamine release concentration-dependently” and the inhibition at 1000 µM ([2]; Rattus norvegicus, Mast cell, 10^-3 M, n = 3) was 96.1%. For the same compound, the inhibition at 100 µM ([2]; Rattus norvegicus, Mast cell, 10^-4 M, n = 3) was 20.8%, the inhibition at 10 µM ([2]; Rattus norvegicus, Mast cell, 10^-5 M, n = 3) was 2.1% and the “Area, Inhibition (%)” value ([3]; 3 mg/kg i.v.) was 6.5%. The “Dye, Inhibition (%)” value ([3]; 3 mg/kg i.v.) was 17.5%, the “Area (of stain)” value ([3]; 3 mg/kg i.v., *p < 0.05) was 866 ± 195 mm^2 and the Dye ([3]; 3 mg/kg i.v.) was 633 ± 111 μg/site. For the same compound, the “Area, Inhibition (%)” value ([3]; 10 mg/kg i.v.) was 30.5%, the “Dye, Inhibition (%)” value ([3]; 10 mg/kg i.v.) was 38.5% and the “Area (of stain)” value ([3]; 10 mg/kg i.v., **p < 0.01) was 644 ± 88 mm^2. For the same compound, the Dye ([3]; 10 mg/kg i.v.) was 472 ± 98 μg/site, the “Area, Inhibition (%)” value ([3]; 30 mg/kg i.v.) was 47.2% and the “Dye, Inhibition (%)” value ([3]; 30 mg/kg i.v.) was 43.4%. The “Area (of stain)” value ([3]; 30 mg/kg i.v., ***p < 0.001) was 489 ± 47 mm^2, the Dye ([3]; 30 mg/kg i.v., *p < 0.05) was 434 ± 77 μg/site and the “inhibition of area of stain and amount of dye, in words” value ([3]; 3, 10 and 30 mg/kg i.v.) was “inhibited both the area of stain and the amount of dye on the rat back dose-dependently”. The “death / abnormal behavior” value (male ddY mice) was “neither death nor abnormal behavior”, the antihemogglutination activity [4] was “antihemogglutination activity” and the “platelet aggregation inhibitory activity” value (platelet) was “platelet aggregation inhibitory activity”.

With `N[C@@H](CCC(=O)N[C@@H](CS)C(=O)NCC(=O)O)C(=O)O` [GSH, glutathione, reference compound] the “effect on rat carrageenan-induced conjunctival edema, in words” value [1] was “no antiinflammatory effect”, the Edema weight [1, 5] was 74.8 ± 3.5 mg and the “% Inhibition (edema weight)” value ([1]; Table 2, 30 mg/kg) was -1.5%.

For “S-(monoethyl-α,β-dicarboxyethyl)glutathione sodium [DCE-GS monoethyl ester sodium]”, the Edema weight [1, 5] was 58.5 ± 2.0 mg and the “% Inhibition (edema weight)” value ([1]; Table 2, 30 mg/kg) was 20.6%.

Source: patent US5135952A, “Antiinflammatory and/or antiallergic methods” (Senju Pharmaceutical Co., ltd., priority 1989, dated 1992)
